Measured values from patent US8431566B2, “Cyclopamine lactam analogs and methods of use thereof” (Infinity Discovery, Inc., priority 2007, dated 2013).

Columns and labels:
[1] = tested on: Hedgehog pathway in C3H10T1/2 cells; assay: C3H10T1/2 osteoblast differentiation assay (alkaline phosphatase readout, Shh-induced); format: cell-based; conditions: Mus musculus, C3H 10T1/2, Approximate EC50 for inhibition, sonic Hedgehog 250 ng/ml, AP activity normalized against total protein
Description: Hedgehog pathway specific cancer cell killing effects may be ascertained using the following assay. C3H10T1/2 cells differentiate into osteoblasts when contacted with the sonic hedgehog peptide (Shh-N). Upon differentiation; these osteoblasts produce high levels of alkaline phosphatase (AP) which can be measured in an enzymatic assay (Nakamura, et al., BBRC (1997) 237:465). Compounds that block the differentiation of C3H10T1/2 into osteoblasts (a Shh dependent event) can therefore be identified by a reduction in AP production (van der Horst, et al., Bone (2003) 33:899). The assay details are described below. The results (EC50 for inhibition) of the differentiation assay are shown below in Table 1.
Mouse embryonic mesoderm fibroblasts C3H10T1/2 cells (obtained from ATCC) were cultured in Basal MEM Media (Gibco/Invitrogen) supplemented with 10% heat inactivated FBS (Hyclone), 50 units/ml penicillin and 50 ug/ml streptomycin (Gibco/Invitrogen) at 37° C. with 5% CO2 in air atmosphere.
C3H10T1/2 cells were plated in 96 wells with a density of 8×10^3 cells/well. Cells were grown to confluence (72 hrs). After sonic Hedgehog (250 ng/ml), and/or compound treatment, the cells were lysed in 110 μL, of lysis buffer (50 mM Tris pH 7.4, 0.1% Triton X 100), plates were sonicated and lysates spun through 0.2 μm PVDF plates (Corning). 40 μL of lysates was assayed for AP activity in alkaline buffer solution (Sigma) containing 1 mg/ml p-Nitrophenyl Phosphate. After incubating for 30 min at 37° C., the plates were read on an Envision plate reader at 405 nm. Total protein was quantified with a BCA protein assay kit from Pierce according to manufacturer's instructions. AP activity was normalized against total protein.

[2] = tested on: Jeko-1; assay: Non-Hodgkin's lymphoma colony formation in methylcellulose, Jeko-1; format: cell-based, human; conditions: NHL, 1.0 uM, 72 hours
Method: (§1) The ability of Compound 12 to inhibit the in vitro growth of human cell lines derived from patients with non-Hodgkin's lymphoma (cell lines RL and Jeko-1) and Hodgkin's disease (cell line L428) was studied. Each of the cell lines was treated for 72 hours with Compound 12 (1.0 uM) followed by plating in methylcellulose.

[3] = tested on: BXPC-3 cells; assay: Pancreatic cancer model: subcutaneous BXPC-3 tumors in mice, tumor volume; format: in vivo, human; conditions: BXPC-3 subcutaneous in mice; orally 30 mg/kg/day, 25 daily doses
Method: (§2) The activity of Compound 12 was further tested in a human pancreatic model: BXPC-3 cells were implanted subcutaneously into the flanks of the right legs of mice. On day 42 post-tumor implant, the mice were randomized into two groups to receive either Vehicle (30% HPBCD) or Compound 12. Compound 12 was administered orally at 30 mg/kg/day. After receiving 25 daily doses, Compound 12 reduced tumor volume growth by 16% when compared to the vehicle control. At the end of the study, the tumors were harvested 4 hours post the last dose to evaluate an on target response by q-RT-PCR analysis of the HH pathway genes.

[4] = tested on: U937; assay: AML colony formation in methylcellulose, U937; format: cell-based, human; conditions: 1.0 uM, 72 hours
Method: (§3) The ability of Compound 12 to inhibit the in vitro growth of human cell lines derived from patients with acute myeloid leukemia (AML, cell line U937) and myelodysplastic syndrome (MDS, cell line KG1 and KG1a) was studied. Each of the cell lines was treated for 72 hours with Compound 12 (1.0 uM) followed by plating in methylcellulose.

[5] = tested on: Gli-reponsive luciferase reporter in RS4-11; assay: Gli-responsive luciferase reporter transient transfection assay, RS4-11; format: cell-based; conditions: 1 uM, vehicle alone 12.97
Method: (§4) The activity of Compound 12 (1 uM) against three pre-B cell acute lymphocytic leukemia cell lines (REH, RS4-11, and Nalm-6) was studied, using a transient transfection assay in which a Gli-reponsive luciferase reporter was transiently transfected into cells. Treatment with Compound 12 repressed luciferase activity compared to a vehicle treated control (Table 4).

[6] = tested on: RL; assay: Non-Hodgkin's lymphoma colony formation in methylcellulose, RL; format: cell-based, human; conditions: NHL, 1.0 uM, 72 hours
Method: as §1

[7] = tested on: Gli-1 mRNA; assay: Medulloblastoma model (Ptch1/Hic1 subcutaneous allografts): Gli-1 mRNA expression in tumors; format: in vivo, mouse; conditions: single oral dose, subcutaneously implanted medulloblastoma tumors, 8 hours post dose
Method: (§5) The activity of Compound 12 was also evaluated in a transgenic mouse model of medulloblastoma. Mice that are heterozygous for loss of function mutations in the tumor suppressors Patched1 (Ptch1) and Hypermethylated in Cancer (Hic1) develop spontaneous medulloblastoma. […] When passaged as subcutaneous allografts, these tumors grow aggressively and are Hedgehog pathway-dependent. This model was employed to evaluate the efficacy of orally administered Compound, and to correlate activity with drug exposure in plasma and tumors.

[8] = tested on: Gli-reponsive luciferase reporter in Nalm-6; assay: Gli-responsive luciferase reporter transient transfection assay, Nalm-6; format: cell-based; conditions: 1 uM, vehicle alone 8.42
Method: as §4

[9] = tested on: REH; assay: Pre-B cell ALL colony formation in methylcellulose, REH; format: cell-based; conditions: treated 72 hours
Method: (§6) The effect of Compound 12 on the growth of two of these cell lines, treated in vitro for 72 hours, was also studied. Following treatment, cells were washed and plated in methylcellulose.

[10] = tested on: medulloblastoma; assay: Medulloblastoma model (Ptch1/Hic1 subcutaneous allografts): tumor growth; format: in vivo, mouse
Method: as §5

[11] = tested on: murine Gli-1 mRNA; assay: Pancreatic cancer model: q-RT-PCR of HH pathway genes in harvested tumors, murine Gli-1; format: in vivo; conditions: BXPC-3 tumors harvested 4 hours post the last dose; 30 mg/kg/day orally
Method: as §2

[12] = tested on: L428; assay: Hodgkin's disease colony formation in methylcellulose, L428; format: cell-based, human; conditions: HD, 1.0 uM, 72 hours
Method: as §1

[13] = tested on: NCI-H929; assay: Multiple myeloma colony growth in methylcellulose, NCI-H929; format: cell-based, human; conditions: treated 96 hours, plated in methylcellulose, colonies quantified 10-21 days later
Method: (§7) The ability of Compound 12 to inhibit the growth of multiple myeloma cells (MM) in vitro was tested, using human multiple myeloma cells lines (NCI-H929 and KMS12) and primary clinical bone marrow specimens derived from patients with MM. The cells were treated for 96 hours with Compound, washed, then plated in methylcellulose. Tumor colonies were quantified 10-21 days later as an indicator of cell growth potential following treatment.

[14] = tested on: KG1; assay: MDS colony formation in methylcellulose, KG1; format: cell-based, human; conditions: 1.0 uM, 72 hours
Method: as §3

[15] = tested on: KMS12; assay: Multiple myeloma colony growth in methylcellulose, KMS12; format: cell-based, human; conditions: treated 96 hours, plated in methylcellulose, colonies quantified 10-21 days later
Method: as §7

[16] = tested on: primary clinical bone marrow specimens derived from patients with MM; assay: Multiple myeloma colony growth in methylcellulose, primary clinical bone marrow specimens; format: cell-based, human; conditions: clinical samples from MM patients; treated 96 hours, plated in methylcellulose
Method: as §7

[17] = tested on: human Gli-1; assay: Pancreatic cancer model: q-RT-PCR of HH pathway genes in harvested tumors, human Gli-1; format: in vivo; conditions: BXPC-3 tumors harvested 4 hours post the last dose; 30 mg/kg/day orally
Method: as §2

[18] = tested on: KG1a; assay: MDS colony formation in methylcellulose, KG1a; format: cell-based, human; conditions: 1.0 uM, 72 hours
Method: as §3

[19] = tested on: RS4-11; assay: Pre-B cell ALL colony formation in methylcellulose, RS4-11; format: cell-based; conditions: treated 72 hours
Method: as §6

[20] = tested on: Gli-reponsive luciferase reporter in REH; assay: Gli-responsive luciferase reporter transient transfection assay, REH; format: cell-based; conditions: 1 uM, vehicle alone 6.73
Method: as §4

[21] = 2° plating (replating of colonies)

Structure (SMILES): CC1=C2C[C@H]3[C@@H](CC[C@@H]4NC(=O)CC[C@@]43C)[C@@H]2CC[C@@]2(C1)O[C@@H]1C[C@H](C)CN[C@H]1[C@H]2C [Compound 11]
- EC50 [1]: > 100 nM

Structure (SMILES): CC1=C2C[C@H]3[C@@H](CC[C@@H]4CNC(=O)CC[C@@]43C)[C@@H]2CC[C@@]2(C1)O[C@@H]1C[C@H](C)CN[C@H]1[C@H]2C [Compound 12]
- % colony formation with Compound 12 (relative to vehicle control) [2]: 27.4%
- reduced tumor volume growth compared to the vehicle control [3]: 16%
- % colony formation with Compound 12 (relative to vehicle control) [4]: 43.4%
- Relative luc activity (+ Compound) [5]: 1.31
- % colony formation with Compound 12 (relative to vehicle control) [6]: 14.3%
- EC50 [1]: 20 to 100 nM
- HH pathway regulation measured by Gli-1 mRNA expression [7]: dose-dependent down-regulation
- Relative luc activity (+ Compound) [8]: 1.44
- % colony formation with Compound (relative to vehicle control) - 1° plating ([9]; 1° plating): 63%
- % colony formation with Compound (relative to vehicle control) - 2° plating [9, 21]: 9%
- ED50 ([10]; Mus musculus, daily oral dosing, medulloblastoma allografts, read-out: approximate effective daily oral dose for 50% inhibition of tumor growth (ED50)): 3 to 7.5 mg/kg
- tumor regression ([10]; daily (QD) PO administration, at higher doses): frank tumor regression seen at higher doses
- inhibition of tumor growth ([10]; daily (QD) PO administration, medulloblastoma allografts): dose dependent inhibition of tumor growth
- murine Gli-1 mRNA levels (q-RT-PCR) compared to Vehicle treated group [11]: robust down-regulation
- % colony formation with Compound 12 (relative to vehicle control) [12]: 21.4%
- % growth of cells (untreated control 100%) [13]: less than 25%
- % colony formation with Compound 12 (relative to vehicle control) [14]: 25.1%
- % growth of cells (untreated control 100%) [15]: less than 25%
- % growth of cells (untreated control 100%) [16]: less than 25%
- human Gli-1 modulation (q-RT-PCR) [17]: no modulation
- % colony formation with Compound 12 (relative to vehicle control) [18]: 34.6%
- % colony formation with Compound (relative to vehicle control) - 1° plating ([19]; 1° plating): 71%
- % colony formation with Compound (relative to vehicle control) - 2° plating [19, 21]: 11%
- Relative luc activity (+ Compound) [20]: 1.12

Structure (SMILES): CC1=C2C[C@H]3[C@@H](CC[C@@H]4CCN(S(C)(=O)=O)CC[C@@]43C)[C@@H]2CC[C@@]2(C1)O[C@@H]1C[C@H](C)CN(S(C)(=O)=O)[C@H]1[C@H]2C [Compound 50]
- EC50 [1]: > 100 nM

Structure (SMILES): CC1=C2C[C@H]3[C@@H](CC[C@@H]4CC(=O)NCC[C@@]43C)[C@@H]2CC[C@@]2(C1)O[C@@H]1C[C@H](C)CN[C@H]1[C@H]2C [Compound 19]
- EC50 [1]: > 100 nM

Structure (SMILES): CC1=C2C[C@H]3[C@@H](CC[C@@H]4CN(C)C(=O)CC[C@@]43C)[C@@H]2CC[C@@]2(C1)O[C@@H]1C[C@H](C)CN[C@H]1[C@H]2C [Compound 31]
- EC50 [1]: 20 to 100 nM

Structure (SMILES): CC1=C2C[C@H]3[C@@H](CC[C@@H]4CN(C)C(=O)CC[C@@]43C)[C@@H]2CC[C@@]2(C1)O[C@@H]1C[C@H](C)CN(S(C)(=O)=O)[C@H]1[C@H]2C [Compound 35]
- EC50 [1]: > 100 nM

Structure (SMILES): CC1=C2C[C@H]3[C@@H](CC[C@@H]4CNC(=O)CC[C@@]43C)[C@@H]2CC[C@@]2(C1)O[C@@H]1C[C@H](C)CN(S(C)(=O)=O)[C@H]1[C@H]2C [Compound 40]
- EC50 [1]: < 20 nM

Structure (SMILES): CC1=C2C[C@H]3[C@@H](CC[C@H]4NC(=O)CC[C@@]43C)C2CC[C@@]2(C1)O[C@@H]1C[C@H](C)CN[C@H]1[C@H]2C (some centres unmarked) [Compound 1]
- EC50 [1]: < 20 nM

Structure (SMILES): CC1=C2C[C@H]3[C@@H](CCC4=CN(C)C(=O)CC[C@@]43C)[C@@H]2CC[C@@]2(C1)O[C@@H]1C[C@H](C)CN[C@H]1[C@H]2C [Compound 41]
- EC50 [1]: > 100 nM
